Measurements as given in US11925624B2, “Methods of administering anti-fibrotic therapy” (GENENTECH, INC., priority 2016, dated 2024).
Read-outs that look alike come from different tables or passages of the source.

Assay: Phase 1 Part A food effect (high-fat / low-fat breakfast) on single-dose pharmacokinetics
Type: in vivo, human
Details: for Test/Reference ratio of LS means, AUC0-t / Test/Reference ratio of LS means, AUC0-∞ / Test/Reference ratio of LS means, Cmax: 400 mg Fed; for % AUCextrap: arithmetic mean; for Tmax / AUC(0-t) / AUC(0-inf) / Cmax / Vd/F / half-life: human, plasma, oral
Text: This study was a randomized, blinded, placebo-controlled, ascending-dose study to evaluate the safety, tolerability, and pharmacokinetic (PK) of single (Part A) and multiple (Part B) doses of Compound I in healthy subjects. In addition, the effects of a standard high-fat breakfast, standard low-fat breakfast, and pretreatment and co-administration of a proton pump inhibitor (PPI) on the tolerability and PK of a single dose of Compound I were investigated in 2 groups in Part A. All subjects received their full dose of Compound I, administered as the appropriate number of either 25 or 200 mg tablets. The high fat breakfast comprised the following: total energy: 895 kcal; total fat: 61 g; total protein: 41 g; total carbohydrate: 46 g. The low fat breakfast comprised the following: total energy: 611 kcal; total fat: 14.7 g; total protein: 20.3 g; total carbohydrate: 106.3 g.
For Group A4, doses (400 mg Compound I or placebo) during Treatment Period 1 were administered in a fasted state on the morning of Day 1. Doses in Treatment Period 2 were administered 30 minutes after starting, and within approximately 10 minutes of completing, a high-fat standard breakfast on the morning of Day 1. Doses during Treatment Period 3 were administered 30 minutes after starting, and within approximately 10 minutes of completing a low-fat standard meal on the morning of Day 1. Doses during Treatment Period 4 were administered on Day 1 after an overnight fast and following administration of a PPI (rabeprazole 20 mg) for 3 days (given as 3 daily [QD] doses, with the final PPI dose at 2 hours prior to study drug administration on Day 1). Subjects in Group A4 received the same Compound I or placebo treatment in all treatment periods, such that each subject received up to 4 single doses of Compound I or placebo.
For Group A5, doses (800 mg Compound I or placebo) during Treatment Period 1 were administered in a fasted state on the morning of Day 1, doses during Treatment Period 2 were administered 30 minutes after starting a low-fat standard breakfast on the morning of Day 1, and doses during Treatment Period 3 were administered on Day 1 after a low-fat meal and following administration of a PPI (rabeprazole 20 mg) for 3 days (given as 3 QD doses, with the final PPI dose at 2 hours prior to study drug administration on Day 1). Subjects in Group A5 received the same Compound I or placebo treatment in all treatment periods, such that each subject received up to 3 single doses of Compound I or placebo.
For Group A4, each subject participated in 3 additional treatment periods, each separated by a minimum of 7 days. Group A4 resided at the CRU from Day −1 to Day 4 of Treatment Periods 2, 3, and 4. For Group A5, each subject participated in 2 additional treatment periods, each separated by a minimum of 7 days. Group A5 resided at the CRU from Day −1 to Day 4 of Treatment Periods 2 and 3. All subjects returned for a Follow-up visit between 5 to 14 days after their final dose of study treatment.
In Part A, all doses in Treatment Period 1 were administered after an overnight fast of at least 8 hours. For the A4 cohort, in Treatment Periods 2 and 3, doses were administered 30 minutes after starting and approximately 10 minutes after completing a high- or low-fat breakfast. In Treatment Period 4, the dose was administered after an overnight fast and following administration of a PPI (PPI was comprised of 3 doses of rabeprazole 20 mg, starting on Day −2 and with the final dose 2 hours before Compound I administration on Day 1). For Group A5, doses during Treatment Period 2 were administered 30 minutes after starting and approximately 10 minutes after completing a low-fat standard breakfast on the morning of Day 1, and doses during Treatment Period 3 were administered on Day 1 after a low-fat meal and following administration of a PPI for 3 days (given as 3 QD doses, with the final PPI dose at 2 hours prior to study drug administration on Day 1).

[1] = High-fat (Test) vs 400 mg Fasted (Reference)
[2] = High-fat (Test) vs 400 mg Fed, Low-fat (Reference)
[3] = Low-fat (Test) vs 400 mg Fasted (Reference)
[4] = 400 mg single dose (A4), Fed, High-fat
[5] = 400 mg single dose (A4), Fed, Low-fat
[6] = 800 mg single dose (A5), Fed, Low-fat
[7] = 800 mg, low-fat fed state vs fasted
[8] = Table 3, 4th section, Low-fat (Test) vs 400 mg Fasted (Reference), n = 6
[9] = high-fat fed state from the fasted state

- Test/Reference ratio of LS means, AUC0-t [1]: 149.0%
- Test/Reference ratio of LS means, AUC0-∞ [1]: 145.8%
- Test/Reference ratio of LS means, Cmax [1]: 168.9%
- Test/Reference ratio of LS means, AUC0-t [2]: 108.7%
- Test/Reference ratio of LS means, AUC0-∞ [2]: 108.2%
- Test/Reference ratio of LS means, Cmax [2]: 102.7%
- Test/Reference ratio of LS means, AUC0-t [3]: 137.1%
- Test/Reference ratio of LS means, AUC0-∞ [3]: 134.7%
- Test/Reference ratio of LS means, Cmax [3]: 164.4%
- AUC0-t (norm) [4]: 14000 (hr*ng/mL)/(mg/kg)
- AUC0-∞ (norm) [4]: 14100 (hr*ng/mL)/(mg/kg)
- CL/F [4]: 83.0 mL/min
- CL/F(norm) [4]: 1.19 (mL/min)/kg
- Cmax (norm) [4]: 1330 ng/mL/mg/kg
- λZ [4]: 0.0861 h⁻¹
- % AUCextrap [4]: 0.213%
- AUC0-t (norm) [5]: 12900 (hr*ng/mL)/(mg/kg)
- AUC0-∞ (norm) [5]: 13000 (hr*ng/mL)/(mg/kg)
- CL/F [5]: 89.8 mL/min
- CL/F(norm) [5]: 1.28 (mL/min)/kg
- Cmax (norm) [5]: 1300 ng/mL/mg/kg
- λZ [5]: 0.0852 h⁻¹
- % AUCextrap [5]: 0.691%
- AUC0-t (norm) [6]: 14300 (hr*ng/mL)/(mg/kg)
- AUC0-∞ (norm) [6]: 14400 (hr*ng/mL)/(mg/kg)
- CL/F [6]: 83.3 mL/min
- CL/F(norm) [6]: 1.16 (mL/min)/kg
- Cmax (norm) [6]: 1200 ng/mL/mg/kg
- λZ [6]: 0.0793 h⁻¹
- % AUCextrap [6]: 0.395%
- Ratio of fed to fasted, AUC0-t [7]: 214.0%
- Ratio of fed to fasted, AUC0-∞ [7]: 203.3%
- Ratio of fed to fasted, Cmax [7]: 225.5%
- Test/Reference ratio of LS means, AUC0-t [8]: 214.0%
- Test/Reference ratio of LS means, AUC0-∞ [8]: 203.3%
- Test/Reference ratio of LS means, Cmax [8]: 225.5%
- Food effect on bioavailability (administration with food (high fat or low fat meal)): positive food effect
- Increase in AUC0-t [9]: 49.0%
- Increase in AUC0-∞ [9]: 45.8%
- Increase in Cmax [9]: 68.9%
- Tmax (400 mg, 400 mg single dose (A4), Fed, High-fat, median, read-out: tmax): 3.5 h
- AUC(0-t) (400 mg, 400 mg single dose (A4), Fed, High-fat, read-out: AUC0-t): 80200 ng·h/mL
- AUC(0-inf) (400 mg, 400 mg single dose (A4), Fed, High-fat, read-out: AUC0-∞): 80300 ng·h/mL
- Cmax (400 mg, 400 mg single dose (A4), Fed, High-fat, read-out: Cmax): 7620 ng/mL
- Vd/F (400 mg, 400 mg single dose (A4), Fed, High-fat, read-out: Vz/F): 57.8 L
- Vd/F (400 mg, 400 mg single dose (A4), Fed, High-fat, read-out: Vz/F(norm)): 0.826 L/kg
- half-life (400 mg, 400 mg single dose (A4), Fed, High-fat, read-out: t1/2 (converted)): 8.05 h
- Tmax (400 mg, 400 mg single dose (A4), Fed, Low-fat, median, read-out: tmax): 2.5 h
- AUC(0-t) (400 mg, 400 mg single dose (A4), Fed, Low-fat, read-out: AUC0-t): 73700 ng·h/mL
- AUC(0-inf) (400 mg, 400 mg single dose (A4), Fed, Low-fat, read-out: AUC0-∞): 74200 ng·h/mL
- Cmax (400 mg, 400 mg single dose (A4), Fed, Low-fat, read-out: Cmax): 7420 ng/mL
- Vd/F (400 mg, 400 mg single dose (A4), Fed, Low-fat, read-out: Vz/F): 63.3 L
- Vd/F (400 mg, 400 mg single dose (A4), Fed, Low-fat, read-out: Vz/F(norm)): 0.904 L/kg
- half-life (400 mg, 400 mg single dose (A4), Fed, Low-fat, read-out: t1/2 (converted)): 7.52 h
- AUC(0-t) (400 mg, Table 3, 4th section, 400 mg Compound I Fasted, n = 6, read-out: LS Means AUC0-t (Reference)): 74500 ng·h/mL
- AUC(0-inf) (400 mg, Table 3, 4th section, 400 mg Compound I Fasted, n = 6, read-out: LS Means AUC0-∞ (Reference)): 78700 ng·h/mL
- Cmax (400 mg, Table 3, 4th section, 400 mg Compound I Fasted, n = 6, read-out: LS Means Cmax (Reference)): 5910 ng/mL
- Cmax (400 mg, Table 3, 4th section, 400 mg Compound I Fed, Low-fat, n = 6, read-out: LS Means Cmax (Test)): 13300 ng/mL
- AUC(0-t) (400 mg, Table 3, 4th section, head as printed:, n = 6, read-out: LS Means AUC0-t (Test)): 159000 ng·h/mL
- AUC(0-inf) (400 mg, Table 3, 4th section, head as printed:, n = 6, read-out: LS Means AUC0-∞ (Test)): 160000 ng·h/mL
- Tmax (400 mg, high-fat fed state, read-out: tmax values, range): 1.5 to 6 h
- Tmax (800 mg, 800 mg single dose (A5), Fed, Low-fat, median, read-out: tmax): 3 h
- AUC(0-t) (800 mg, 800 mg single dose (A5), Fed, Low-fat, read-out: AUC0-t): 159000 ng·h/mL
- AUC(0-inf) (800 mg, 800 mg single dose (A5), Fed, Low-fat, read-out: AUC0-∞): 160000 ng·h/mL
- Cmax (800 mg, 800 mg single dose (A5), Fed, Low-fat, read-out: Cmax): 13300 ng/mL
- Vd/F (800 mg, 800 mg single dose (A5), Fed, Low-fat, read-out: Vz/F): 63 L
- Vd/F (800 mg, 800 mg single dose (A5), Fed, Low-fat, read-out: Vz/F(norm)): 0.876 L/kg
- half-life (800 mg, 800 mg single dose (A5), Fed, Low-fat, read-out: t1/2 (converted)): 8.74 h
- half-life (800 mg, 400 and 800 mg, high- and low-fat states, read-out: Geometric mean t1/2, range): 7.5 to 8.7 h
- Tmax (low-fat fed state, read-out: tmax values, range): 1 to 4 h
- Increase in AUC0-t (low-fat fed state (vs fasted)): 37.1%
- Increase in AUC0-∞ (low-fat fed state (vs fasted)): 34.7%
- Increase in Cmax (low-fat fed state (vs fasted)): 64.4%
Compound: Cn1cc(-c2cn(-c3ccc(OC(F)(F)F)cc3)c(=O)c3ncn(C)c23)cn1 [Compound I]
